Measured values from patent US10428083B2, “Heterocyclylmethyl-thienouracile as antagonists of the adenosine-A2B-receptor” (BAYER PHARMA AKTIENGESELLSCHAFT, priority 2015, dated 2019).

Biological target: human adenosine A2b receptor (Homo sapiens (Human), UniProt P29275)
Assay: Cellular in vitro reporter gene test for A2b receptor activity (CHO-K1, CRE-luciferase, NECA stimulation)
Assay type: cell-based
Conditions: recombinant CHO-K1 cell line, CRE-luciferase reporter, antagonism of EC50 concentration of NECA; in some cases means of several determinations, rounded to two significant figures; read-out: A2b receptor IC50
Description: B-1. Cellular In Vitro Tests for Determining A2b Receptor Activity and Adenosine Receptor Selectivity
In the case of the A2a and A2b cell lines, this is a minimal promoter having a plurality of cAMP-responsive elements (CRE). Stimulation of the Gs-coupled A2b or A2a receptors by NECA ultimately leads, via formation of cAMP, to CRE-dependent induction of luciferase expression, which is detected 3 hours after the start of the incubation with NECA using a detection solution in a suitable luminometer. For testing the antagonists, initially, in a pre-experiment, the concentration of NECA which, at the test day in question, results in half-maximum stimulation of luciferase expression (EC50 concentration) is determined. By joint incubation of this EC50 concentration of NECA with the substances to be tested, it is possible to determine their antagonistic activity.

human adenosine A2b receptor, sequence (P29275 whole entry): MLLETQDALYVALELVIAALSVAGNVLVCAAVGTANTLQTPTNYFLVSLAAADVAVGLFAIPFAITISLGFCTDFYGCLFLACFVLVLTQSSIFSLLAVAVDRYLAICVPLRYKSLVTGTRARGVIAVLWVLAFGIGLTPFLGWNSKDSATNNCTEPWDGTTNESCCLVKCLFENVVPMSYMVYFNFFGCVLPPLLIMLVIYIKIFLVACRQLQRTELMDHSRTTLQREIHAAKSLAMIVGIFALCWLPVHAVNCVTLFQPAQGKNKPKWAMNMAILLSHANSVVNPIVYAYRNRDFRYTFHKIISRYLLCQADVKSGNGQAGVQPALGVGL

IC50 | SMILES
250 nM | CCOCCn1c(=O)c2c(C)c(CN3CCNC(=O)C3=O)sc2n(CCCF)c1=O [Example 492, 6-[(2,3-Dioxopiperazin-1-yl)methyl]-3-(2-ethoxyethyl)-1-(3-fluoropropyl)-5-methylthieno[2,3-d]pyrimidine-2,4(1H,3H)-dione]
12 nM | COCCn1c(=O)n(CC(F)(F)F)c(=O)c2c(C)c(CN3CCNC3=NC#N)sc21 [Example 268, [1-{[1-(2-Methoxyethyl)-5-methyl-2,4-dioxo-3-(2,2,2-trifluoroethyl)-1,2,3,4-tetrahydrothieno[2,3-d]pyrimidin-6-yl]methyl}imidazolidin-2-ylidene]cyanamide]
63 nM | COCCn1c(=O)c2c(C)c(Cn3[nH]ccc3=O)sc2n(CCC(F)(F)F)c1=O [Example 287, 3-(2-Methoxyethyl)-5-methyl-6-[(5-oxo-2,5-dihydro-1H-pyrazol-1-yl)methyl]-1-(3,3,3-trifluoropropyl)thieno[2,3-d]pyrimidine-2,4(1H,3H)-dione]
43 nM | Cc1c(Cn2nc[nH]c2=O)sc2c1c(=O)n(CC(F)(F)F)c(=O)n2CC1CCCO1 (single isomer, unassigned) [Example 435, 5-Methyl-6-[(5-oxo-4,5-dihydro-1H-1,2,4-triazol-1-yl)methyl]-1-(tetrahydrofuran-2-ylmethyl)-3-(2,2,2-trifluoroethyl)thieno[2,3-d]pyrimidine-2,4(1H,3H)-dione]
15 nM | CCn1c(=O)c2c(C)c(CN3CCNC3=O)sc2n(CC(F)F)c1=O [Example 177, 1-(2,2-Difluoroethyl)-3-ethyl-5-methyl-6-[(2-oxoimidazolidin-1-yl)methyl]thieno[2,3-d]pyrimidine-2,4(1H,3H)-dione]
20 nM | Cc1c(CN2CCNC(=O)C2=O)sc2c1c(=O)n(CC(C)C)c(=O)n2CCCF [Example 121, 6-[(2,3-Dioxopiperazin-1-yl)methyl]-1-(3-fluoropropyl)-3-isobutyl-5-methylthieno[2,3-d]pyrimidine-2,4(1H,3H)-dione]
17 nM | Cc1c(CN2CCNC2=S)sc2c1c(=O)n(CC(F)F)c(=O)n2CC1CCCO1 (single isomer, unassigned) [Example 164, 3-(2,2-Difluoroethyl)-5-methyl-1-(tetrahydrofuran-2-ylmethyl)-6-[(2-thioxoimidazolidin-1-yl)methyl]thieno[2,3-d]pyrimidine-2,4(1H,3H)-dione]
220 nM | COCCn1c(=O)n(C(C)COC)c(=O)c2c(C)c(CN3CCNC3=O)sc21 (single isomer, unassigned) [Example 330, 1-(2-Methoxyethyl)-3-(1-methoxypropan-2-yl)-5-methyl-6-[(2-oxoimidazolidin-1-yl)methyl]thieno[2,3-d]pyrimidine-2,4(1H,3H)-dione]
38 nM | CCC(C)n1c(=O)c2c(C)c(CN3CCNC3=O)sc2n(CCOC)c1=O (racemic) [Example 190, 3-sec-Butyl-1-(2-methoxyethyl)-5-methyl-6-[(2-oxoimidazolidin-1-yl)methyl]thieno[2,3-d]pyrimidine-2,4(1H,3H)-dione]
900 nM | COCCn1c(=O)n(C(C)COC)c(=O)c2c(C)c(CN3CCNC3=O)sc21 (racemic) [Example 329, 1-(2-Methoxyethyl)-3-(1-methoxypropan-2-yl)-5-methyl-6-[(2-oxoimidazolidin-1-yl)methyl]thieno[2,3-d]pyrimidine-2,4(1H,3H)-dione]
0.79 nM | Cc1c(CN2CCNC2=S)sc2c1c(=O)n(CC(F)(F)F)c(=O)n2CCC(F)(F)F [Example 152, 5-Methyl-6-[(2-thioxoimidazolidin-1-yl)methyl]-3-(2,2,2-trifluoroethyl)-1-(3,3,3-trifluoropropyl)thieno[2,3-d]pyrimidine-2,4(1H,3H)-dione]
190 nM | COCCn1c(=O)n(CC(F)(F)F)c(=O)c2c(C)c(CN3CCNC(=O)C3=O)sc21 [Example 486, 6-[(2,3-Dioxopiperazin-1-yl)methyl]-1-(2-methoxyethyl)-5-methyl-3-(2,2,2-trifluoroethyl)thieno[2,3-d]pyrimidine-2,4(1H,3H)-dione]
660 nM | COCCn1c(=O)c2c(C)c(CN3CCNC(=O)C3=O)sc2n(CC2CCO2)c1=O (single isomer, unassigned) [Example 401, 6-[(2,3-Dioxopiperazin-1-yl)methyl]-3-(2-methoxyethyl)-5-methyl-1-(oxetan-2-ylmethyl)thieno[2,3-d]pyrimidine-2,4(1H,3H)-dione]
3.9 nM | CCn1c(=O)c2c(C)c(CN3CC[C@@H](O)C3=O)sc2n(CCC(F)(F)F)c1=O [Example 126, 3-Ethyl-6-{[(3R)-3-hydroxy-2-oxopyrrolidin-1-yl]methyl}-5-methyl-1-(3,3,3-trifluoropropyl)thieno[2,3-d]pyrimidine-2,4(1H,3H)-dione]
5.7 nM | COCCn1c(=O)n(CC(C)(C)C)c(=O)c2c(C)c(CN3CCNC3=S)sc21 [Example 151, 3-(2,2-Dimethylpropyl)-1-(2-methoxyethyl)-5-methyl-6-[(2-thioxoimidazolidin-1-yl)methyl]thieno[2,3-d]pyrimidine-2,4(1H,3H)-dione]
23 nM | COCCn1c(=O)c2c(C)c(CN3CCNC3=O)sc2n(CC2CCCO2)c1=O (racemic) [Example 233, 3-(2-Methoxyethyl)-5-methyl-6-[(2-oxoimidazolidin-1-yl)methyl]-1-(tetrahydrofuran-2-ylmethyl)thieno[2,3-d]pyrimidine-2,4(1H,3H)-dione]
72 nM | CCOCCn1c(=O)c2c(C)c(CN3CCNC3=NC#N)sc2n(CCCF)c1=O [Example 453, [1-{[3-(2-Ethoxyethyl)-1-(3-fluoropropyl)-5-methyl-2,4-dioxo-1,2,3,4-tetrahydrothieno[2,3-d]pyrimidin-6-yl]methyl}imidazolidin-2-ylidene]cyanamide]
7.7 nM | COCCn1c(=O)n(CC(F)(F)F)c(=O)c2c(C)c(CN3CCNC3=O)sc21 [Example 94, 1-(2-Methoxyethyl)-5-methyl-6-[(2-oxoimidazolidin-1-yl)methyl]-3-(2,2,2-trifluoroethyl)thieno[2,3-d]pyrimidine-2,4(1H,3H)-dione]
0.88 nM | CCn1c(=O)c2c(C)c(CN3CCNC3=O)sc2n(CCOC(F)(F)F)c1=O [Example 57, 3-Ethyl-5-methyl-6-[(2-oxoimidazolidin-1-yl)methyl]-1-[2-(trifluoromethoxy)ethyl]thieno[2,3-d]pyrimidine-2,4(1H,3H)-dione]
12 nM | Cc1c(CN2CCNC2=NC#N)sc2c1c(=O)n(CC(F)(F)F)c(=O)n2CCC(F)(F)F [Example 358, [1-{[5-Methyl-2,4-dioxo-3-(2,2,2-trifluoroethyl)-1-(3,3,3-trifluoropropyl)-1,2,3,4-tetrahydrothieno[2,3-d]pyrimidin-6-yl]methyl}imidazolidin-2-ylidene]cyanamide]
410 nM | Cc1c(CN2CCNC(=O)C2=O)sc2c1c(=O)n(C(C)C)c(=O)n2CC1CCCO1 (single isomer, unassigned) [Example 482, 6-[(2,3-Dioxopiperazin-1-yl)methyl]-3-isopropyl-5-methyl-1-(tetrahydrofuran-2-ylmethyl)thieno[2,3-d]pyrimidine-2,4(1H,3H)-dione]
33 nM | COCCn1c(=O)c2c(C)c(CN3CCNC3=NC#N)sc2n(CC2CCCO2)c1=O (single isomer, unassigned) [Example 369, [1-{[3-(2-Methoxyethyl)-5-methyl-2,4-dioxo-1-(tetrahydrofuran-2-ylmethyl)-1,2,3,4-tetrahydrothieno[2,3-d]pyrimidin-6-yl]methyl}imidazolidin-2-ylidene]cyanamide]
180 nM | COCCn1c(=O)c2c(C)c(Cn3[nH]ccc3=O)sc2n(CC2CCCO2)c1=O (racemic) [Example 289, 3-(2-Methoxyethyl)-5-methyl-6-[(5-oxo-2,5-dihydro-1H-pyrazol-1-yl)methyl]-1-(tetrahydrofuran-2-ylmethyl)thieno[2,3-d]pyrimidine-2,4(1H,3H)-dione]
220 nM | CCn1c(=O)c2c(C)c(CN3CCNC3=S)sc2n(CCC(C)(C)C)c1=O [Example 37, 1-(3,3-Dimethylbutyl)-3-ethyl-5-methyl-6-[(2-thioxoimidazolidin-1-yl)methyl]thieno[2,3-d]pyrimidine-2,4(1H,3H)-dione]
140 nM | CCn1c(=O)c2c(C)c(CN3CCNC3=O)sc2n(CCOC2CCCC2)c1=O [Example 308, 1-[2-(Cyclopentyloxy)ethyl]-3-ethyl-5-methyl-6-[(2-oxoimidazolidin-1-yl)methyl]thieno[2,3-d]pyrimidine-2,4(1H,3H)-dione]
9 nM | Cc1c(CN2CCNC2=O)sc2c1c(=O)n(C(C)C)c(=O)n2CCF [Example 182, 1-(2-Fluoroethyl)-3-isopropyl-5-methyl-6-[(2-oxoimidazolidin-1-yl)methyl]thieno[2,3-d]pyrimidine-2,4(1H,3H)-dione]
20 nM | CCSCCn1c(=O)n(CC)c(=O)c2c(C)c(CN3CCNC3=S)sc21 [Example 294, 3-Ethyl-1-[2-(ethylsulphanyl)ethyl]-5-methyl-6-[(2-thioxoimidazolidin-1-yl)methyl]thieno[2,3-d]pyrimidine-2,4(1H,3H)-dione]
7 nM | Cc1c(CN2CCNC2=O)sc2c1c(=O)n(C(C)C)c(=O)n2CC1CCO1 (single isomer, unassigned) [Example 184, 3-Isopropyl-5-methyl-1-(oxetan-2-ylmethyl)-6-[(2-oxoimidazolidin-1-yl)methyl]thieno[2,3-d]pyrimidine-2,4(1H,3H)-dione]
